In PubChem BioAssay AID1963973 (Molecular Pharmacology Branch, DTP, NCI, 2024):

Tested on: 883617-216-R-J1-PDC tumor spheroids, viability
Test: Anticancer human tumor 883617-216-R-J1-PDC patient-derived bladder carcinoma cell line growth inhibition [PI3K]
Conditions: spheroids with HUVEC and MSC; for IC50: curve of first compound; for viability, T/C: stronger effect = lower value
Procedure, shortened: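 Stroma-containing spheroids: tumor line, pooled-donor HUVEC, hMSC. Treatments: targeted agents with PI3K inhibitors. Dosing: clinically relevant, half-log spacing, 10 microM ceiling without known Cmax. Read-out: cell viability.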

[1] = second compound 0.0316 µM, first compound 0.0316 µM
[2] = second compound 0.0316 µM, first compound 0.1 µM
[3] = second compound 0.1 µM, first compound 0.0316 µM
[4] = second compound 0.1 µM, first compound 0.1 µM
[5] = second compound 0.316 µM, first compound 0.0316 µM
[6] = second compound 0.316 µM, first compound 0.1 µM
[7] = second compound 1 µM, first compound 0.0316 µM
[8] = second compound 1 µM, first compound 0.1 µM
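Note: spheroids exposed to agents for 7 days before the viability read.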

Cn1ncnc1[C@H]1c2n[nH]c(=O)c3cc(F)cc(c23)N[C@@H]1c1ccc(F)cc1 + COc1c(OCCCN2CCOCC2)ccc2c3n(c(=NC(=O)c4cnc(N)nc4)nc12)CCN3
IC50 (second compound 0.00316 µM): > 0.1 µM | IC50 (second compound 0.01 µM): > 0.1 µM | IC50 (second compound 0.0316 µM): < 0.000316 µM | IC50 (second compound 0.1 µM): < 0.000316 µM | IC50 (second compound 0.316 µM): < 0.000316 µM | IC50 (second compound 1 µM): < 0.000316 µM | viability, T/C (second compound 0.00316 µM, first compound 0.000316 µM): 88.1% | viability, T/C (second compound 0.00316 µM, first compound 0.001 µM): 79.5% | viability, T/C (second compound 0.00316 µM, first compound 0.00316 µM): 87.2% | viability, T/C (second compound 0.00316 µM, first compound 0.01 µM): 75.3% | viability, T/C (second compound 0.00316 µM, first compound 0.0316 µM): 67.2% | viability, T/C (second compound 0.00316 µM, first compound 0.1 µM): 54.6% | viability, T/C (second compound 0.01 µM, first compound 0.000316 µM): 63.2% | viability, T/C (second compound 0.01 µM, first compound 0.001 µM): 64.7% | viability, T/C (second compound 0.01 µM, first compound 0.00316 µM): 64.9% | viability, T/C (second compound 0.01 µM, first compound 0.01 µM): 86.1% | viability, T/C (second compound 0.01 µM, first compound 0.0316 µM): 54.8% | viability, T/C (second compound 0.01 µM, first compound 0.1 µM): 45% | viability, T/C (second compound 0.0316 µM, first compound 0.000316 µM): 31.3% | viability, T/C (second compound 0.0316 µM, first compound 0.001 µM): 36.6% | viability, T/C (second compound 0.0316 µM, first compound 0.00316 µM): 35.3% | viability, T/C (second compound 0.0316 µM, first compound 0.01 µM): 33.9% | viability, T/C [1]: 39.3% | viability, T/C [2]: 29% | viability, T/C (second compound 0.1 µM, first compound 0.000316 µM): 16% | viability, T/C (second compound 0.1 µM, first compound 0.001 µM): 17.7% | viability, T/C (second compound 0.1 µM, first compound 0.00316 µM): 16.2% | viability, T/C (second compound 0.1 µM, first compound 0.01 µM): 15.3% | viability, T/C [3]: 15.6% | viability, T/C [4]: 14.1% | viability, T/C (second compound 0.316 µM, first compound 0.000316 µM): 5.21% | viability, T/C (second compound 0.316 µM, first compound 0.001 µM): 5.06% | viability, T/C (second compound 0.316 µM, first compound 0.00316 µM): 5.56% | viability, T/C (second compound 0.316 µM, first compound 0.01 µM): 5.19% | viability, T/C [5]: 5.74% | viability, T/C [6]: 3.68% | viability, T/C (second compound 1 µM, first compound 0.000316 µM): 4.93% | viability, T/C (second compound 1 µM, first compound 0.001 µM): 4.65% | viability, T/C (second compound 1 µM, first compound 0.00316 µM): 3.52% | viability, T/C (second compound 1 µM, first compound 0.01 µM): 2.9% | viability, T/C [7]: 3.13% | viability, T/C [8]: 2.73%

C=CC(=O)N1CCN(c2nc(=O)n(-c3c(C)ccnc3C(C)C)c3nc(-c4c(O)cccc4F)c(F)cc23)C(C)C1 (centres undefined) + CC(Nc1ncnc2nc[nH]c12)c1cc2cccc(Cl)c2c(=O)n1-c1ccccc1
IC50 (second compound 0.0316 µM): > 10 µM | IC50 (second compound 0.1 µM): > 10 µM | IC50 (second compound 0.316 µM): < 0.0316 µM | IC50 (second compound 1 µM): 0.0739 µM | IC50 (second compound 3.16 µM): < 0.0316 µM | IC50 (second compound 10 µM): < 0.0316 µM | viability, T/C [1]: 59.4% | viability, T/C [2]: 41.1% | viability, T/C (second compound 0.0316 µM, first compound 0.316 µM): 49.5% | viability, T/C (second compound 0.0316 µM, first compound 1 µM): 55.3% | viability, T/C (second compound 0.0316 µM, first compound 3.16 µM): 59.9% | viability, T/C (second compound 0.0316 µM, first compound 10 µM): 64.2% | viability, T/C [3]: 60.9% | viability, T/C [4]: 46.9% | viability, T/C (second compound 0.1 µM, first compound 0.316 µM): 48.4% | viability, T/C (second compound 0.1 µM, first compound 1 µM): 57.9% | viability, T/C (second compound 0.1 µM, first compound 3.16 µM): 63.4% | viability, T/C (second compound 0.1 µM, first compound 10 µM): 62% | viability, T/C [5]: 55.9% | viability, T/C [6]: 43.4% | viability, T/C (second compound 0.316 µM, first compound 0.316 µM): 40.8% | viability, T/C (second compound 0.316 µM, first compound 1 µM): 59.1% | viability, T/C (second compound 0.316 µM, first compound 3.16 µM): 48.7% | viability, T/C (second compound 0.316 µM, first compound 10 µM): 54.8% | viability, T/C [7]: 63.3% | viability, T/C [8]: 45.2% | viability, T/C (second compound 1 µM, first compound 0.316 µM): 43% | viability, T/C (second compound 1 µM, first compound 1 µM): 45.7% | viability, T/C (second compound 1 µM, first compound 3.16 µM): 37.1% | viability, T/C (second compound 1 µM, first compound 10 µM): 45.6% | viability, T/C (second compound 3.16 µM, first compound 0.0316 µM): 43.2% | viability, T/C (second compound 3.16 µM, first compound 0.1 µM): 36.2% | viability, T/C (second compound 3.16 µM, first compound 0.316 µM): 27.2% | viability, T/C (second compound 3.16 µM, first compound 1 µM): 37.5% | viability, T/C (second compound 3.16 µM, first compound 3.16 µM): 37.6% | viability, T/C (second compound 3.16 µM, first compound 10 µM): 45.4% | viability, T/C (second compound 10 µM, first compound 0.0316 µM): 26.1% | viability, T/C (second compound 10 µM, first compound 0.1 µM): 20.1% | viability, T/C (second compound 10 µM, first compound 0.316 µM): 19.6% | viability, T/C (second compound 10 µM, first compound 1 µM): 21.9% | viability, T/C (second compound 10 µM, first compound 3.16 µM): 28.8% | viability, T/C (second compound 10 µM, first compound 10 µM): 31.7%
